US20100056596A1, “RESISTANCE-REPELLENT RETROVIRAL PROTEASE INHIBITORS” (Sequoia Pharmaceuticals, priority 2004, published 2010)
Where two headings read alike, the source gives them in different places.

Columns and labels:
wild type HIV-1 protease = target: T1, wild type HIV-1 protease (Human immunodeficiency virus type 1 group M subtype B, UniProt P04585); test: Ki against wild type (WT) HIV-1 protease; assay type: biochemical
T1 construct: over 45 of the 99 amino acids of the HIV protease monomer

HIV-1 isolates, WT = test: In vitro drug sensitivity of HIV-1 laboratory isolates, WT; assay type: cell-based
Method: (§1) In Vitro Drug Sensitivity of HIV-1 Laboratory Isolates to PIs
(§2) The sensitivities of HIV-1 isolates against compounds of the invention were determined as previously described with minor modifications (Shiraska et al., Proc. Natl. Acad. Sci. USA, 92, 2398-2402 (1995)).

HIV-1 isolates, Mutant 9 = test: In vitro drug sensitivity of HIV-1 laboratory isolates, Mutant 9; assay type: cell-based
Method: as §1, §2

HIV-1 protease Mutant 9 = HIV-1 protease Mutant 9 (Human immunodeficiency virus type 1, UniProt P04585); test: Ki against HIV-1 protease Mutant 9; assay type: biochemical
HIV-1 protease Mutant 8 = HIV-1 protease Mutant 8 (Human immunodeficiency virus type 1, UniProt P04585); test: Ki against HIV-1 protease Mutant 8; assay type: biochemical
HIV-1 isolates, Mutant 8 = test: In vitro drug sensitivity of HIV-1 laboratory isolates, Mutant 8; assay type: cell-based
Method: as §1, §2

[1] = Human immunodeficiency virus 1, HIV-1 isolate WT
[2] = Human immunodeficiency virus 1, read-out: IC50 Mutant 9
[3] = Human immunodeficiency virus 1, read-out: IC50 Mutant 8
[4] = Mutant 9, read-out: IC50 Mutant 9
[5] = Mutant 8, read-out: IC50 Mutant 8

| SMILES | Ki (wild type HIV-1 protease; wild type HIV-1 protease) [nM] | IC50 (HIV-1 isolates, WT; [1]) [nM] | IC50 (HIV-1 isolates, Mutant 9; [2]) [nM] | Ki (HIV-1 protease Mutant 9; HIV-1 protease Mutant 9) [nM] | Ki (HIV-1 protease Mutant 8; HIV-1 protease Mutant 8) [nM] | IC50 (HIV-1 isolates, Mutant 8; [3]) [nM] | Ki (wild type HIV-1 protease; WT) [nM] | IC50 (HIV-1 isolates, WT; WT) [nM] | IC50 (HIV-1 isolates, Mutant 9; [4]) [nM] | Ki (HIV-1 protease Mutant 9; Mutant 9) [nM] | Ki (HIV-1 protease Mutant 8; Mutant 8) [nM] | IC50 (HIV-1 isolates, Mutant 8; [5]) [nM] | IC50 (HIV-1 isolates, WT; Human immunodeficiency virus 1) [nM] |
| --- | --- | --- | --- | --- | --- | --- | --- | --- | --- | --- | --- | --- | --- |
| CC(C)CN(CC(O)C(Cc1ccccc1)NC(=O)OC1COC2OCCC12)S(=O)(=O)c1ccc2onc(COCC(F)(F)F)c2c1 (stereo not drawn) [Compound 246] | < 0.1 | 2.7 | 105 | 1.1 | < 0.3 | 6.8 |  |  |  |  |  |  |  |
| CC(C)CN(C[C@@H](O)[C@H](Cc1ccccc1)NC(=O)OC1COC2OCCC12)S(=O)(=O)c1ccc2occ(CN3CCCCC3)c2c1 (stereo partly drawn) [Compound 109] |  |  |  |  |  |  | < 0.1 | 2 | > 400 | 2.8 | < 0.3 | 30 |  |
| CC(C)CN(CC(O)C(Cc1ccccc1)NC(=O)OC1COC2OCCC12)S(=O)(=O)c1ccc2onc(CO)c2c1 (stereo not drawn) [Compound 213] | < 0.1 | 7 | 55 | 0.15 | < 0.3 | 30 |  |  |  |  |  |  |  |
| CC(C)CN(CC(O)C(Cc1ccccc1)NC(=O)OC1COC2OCCC12)S(=O)(=O)c1ccc2occ(CNS(=O)(=O)C(C)C)c2c1 (stereo not drawn) [Compound 115] |  |  | 64 |  |  | 18 | < 0.1 |  |  | 0.27 | < 0.3 |  | 6 |
| CC(=O)NCc1noc2ccc(S(=O)(=O)N(CC(C)C)CC(O)C(Cc3ccccc3)NC(=O)OC3COC4OCCC34)cc12 (stereo not drawn) [Compound 214] | < 0.1 | 42 | 31 | < 0.1 | < 0.3 | 28 |  |  |  |  |  |  |  |
| CC(C)CN(CC(O)C(Cc1ccccc1)NC(=O)OC1COC2OCCC12)S(=O)(=O)c1ccc2onc(CN)c2c1 (stereo not drawn) [Compound 203] | < 0.1 | 22 | 120 | 0.71 | < 0.3 | 70 |  |  |  |  |  |  |  |
| CC(=O)N(Cc1noc2ccc(S(=O)(=O)N(CC(C)C)CC(O)C(Cc3ccccc3)NC(=O)OC3COC4OCCC34)cc12)CC(F)(F)F (stereo not drawn) [Compound 247] | < 0.1 | 5.4 | > 400 | 1.1 | < 0.3 | 29 |  |  |  |  |  |  |  |
| CCOC(=O)N(CCOC)Cc1coc2ccc(S(=O)(=O)N(CC(C)C)C[C@@H](O)[C@H](Cc3ccccc3)NC(=O)OC3COC4OCCC34)cc12 (stereo partly drawn) [Compound 126] |  |  |  |  |  |  | < 0.1 | 4 | 250 | 0.92 | < 0.3 | 60 |  |
| CC(C)CN(CC(O)C(Cc1ccccc1)NC(=O)OC1COC2OCCC12)S(=O)(=O)c1ccc2onc(CNCC(F)(F)C(F)(F)F)c2c1 (stereo not drawn) [Compound 228] | 0.12 | 4.5 | 26 | 0.2 | < 0.3 | 9.5 |  |  |  |  |  |  |  |
| CCCCNCc1noc2ccc(S(=O)(=O)N(CC(C)C)CC(O)C(Cc3ccccc3)NC(=O)OC3COC4OCCC34)cc12 (stereo not drawn) [Compound 231] | < 0.1 | 4.3 | 60 | 0.29 | < 0.3 | 23 |  |  |  |  |  |  |  |
| CCCOC(=O)NCc1noc2ccc(S(=O)(=O)N(CC(C)C)CC(O)C(Cc3ccccc3)NC(=O)OC3COC4OCCC34)cc12 (stereo not drawn) [Compound 222] | < 0.1 | 3 | 45 | 0.19 | < 0.3 | 12 |  |  |  |  |  |  |  |
| CC(C)CN(CC(O)C(Cc1ccccc1)NC(=O)OC1COC2OCCC12)S(=O)(=O)c1ccc2onc(CSCC(F)(F)F)c2c1 (stereo not drawn) [Compound 233] | < 0.1 | 4 | > 400 | 3.4 | < 0.3 | 36 |  |  |  |  |  |  |  |
| COCc1noc2ccc(S(=O)(=O)N(CC(C)C)CC(O)C(Cc3ccccc3)NC(=O)OC3COC4OCCC34)cc12 (stereo not drawn) [Compound 244] | < 0.1 | 4.1 | 305 | 0.49 | < 0.3 | 40 |  |  |  |  |  |  |  |
| CC(C)CN(CC(O)C(Cc1ccccc1)NC(=O)OC1COC2OCCC12)S(=O)(=O)c1ccc2onc(CNC(=O)c3ccco3)c2c1 (stereo not drawn) [Compound 240] | < 0.1 | 6.5 | 20 | 0.26 | < 0.3 | 11 |  |  |  |  |  |  |  |
| CC(C)CN(C[C@@H](O)[C@H](Cc1ccccc1)NC(=O)OC1COC2OCCC12)S(=O)(=O)c1ccc2oc(CBr)cc2c1 (stereo partly drawn) [Compound 104] |  |  |  |  |  |  | < 0.1 | 8 | 230 | 0.41 | < 0.3 | 41 |  |
| CC(=O)NCc1coc2ccc(S(=O)(=O)N(CC(C)C)C[C@@H](O)[C@H](Cc3ccccc3)NC(=O)OC3COC4OCCC34)cc12 (stereo partly drawn) [Compound 107] |  |  |  |  |  |  | < 0.1 | 15 | 42 | 0.26 | < 0.3 | 28 |  |
| CC(C)CN(CC(O)C(Cc1ccccc1)NC(=O)OC1COC2OCCC12)S(=O)(=O)c1ccc2onc(CNS(=O)(=O)C(C)C)c2c1 (stereo not drawn) [Compound 204] | < 0.1 | 6.5 | 83 | 0.14 | < 0.3 | 31 |  |  |  |  |  |  |  |
| CC(C)CN(CC(O)C(Cc1ccccc1)NC(=O)OC1COC2OCCC12)S(=O)(=O)c1ccc2onc(CNCC(F)(F)F)c2c1 (stereo not drawn) [Compound 229] | < 0.1 | 2.2 | 21 | 0.46 | < 0.3 | 3.1 |  |  |  |  |  |  |  |
| CC(C)CN(C[C@@H](O)[C@H](Cc1ccccc1)NC(=O)OC1COC2OCCC12)S(=O)(=O)c1ccc2occ(CNC(=O)c3cccnc3)c2c1 (stereo partly drawn) [Compound 118] |  |  |  |  |  |  | < 0.1 | 30 | 39 | 0.12 | < 0.3 | 35 |  |
| Cc1n[nH]c2ccc(S(=O)(=O)N(CC(C)C)CC(O)C(Cc3ccccc3)NC(=O)OC3COC4OCCC34)cc12 (stereo not drawn) [Compound 301, {1-Benzyl-2-hydroxy-3-[isobutyl-(3-methyl-1H-indazole-5-sulfonyl)-amino]-propyl}-carbamic acid hexahydro-furo[2,3-b]furan-3-yl ester] |  |  | 80 |  |  | 70 | < 0.1 |  |  | 0.23 | < 0.3 |  | 8 |
| COCCNCc1noc2ccc(S(=O)(=O)N(CC(C)C)CC(O)C(Cc3ccccc3)NC(=O)OC3COC4OCCC34)cc12 (stereo not drawn) [Compound 219] | < 0.1 | 4 | 40 | 0.37 | < 0.3 | 9 |  |  |  |  |  |  |  |
| CC(=O)OCc1coc2ccc(S(=O)(=O)N(CC(C)C)CC(O)C(Cc3ccccc3)NC(=O)OC3COC4OCCC34)cc12 (stereo not drawn) [Compound 122] |  |  | 110 |  |  | 11 | < 0.1 |  |  | 0.27 | < 0.3 |  | 5.9 |
| CCCC[S+]([O-])Cc1coc2ccc(S(=O)(=O)N(CC(C)C)C[C@@H](O)[C@H](Cc3ccccc3)NC(=O)OC3COC4OCCC34)cc12 (stereo partly drawn) [Compound 111] |  |  | 49 |  |  | 24 | < 0.1 |  |  | 0.16 | < 0.3 |  | 8 |
| CC(C)CN(CC(O)C(Cc1ccccc1)NC(=O)OC1COC2OCCC12)S(=O)(=O)c1ccc2occc2c1 (stereo not drawn) [Compound 101, {3-[(Benzofuran-5-sulfonyl)-isobutyl-amino]-1-benzyl-2-hydroxy-propyl}-carbamic acid hexahydro-furo[2,3-b]furan-3-yl ester] |  |  | 120 |  |  | 16 | < 0.1 |  |  | 0.5 | < 0.3 |  | 1.6 |
| CC(C)CN(CC(O)C(Cc1ccccc1)NC(=O)OC1COC2OCCC12)S(=O)(=O)c1ccc2onc(CNCCc3ccccn3)c2c1 (stereo not drawn) [Compound 224] | < 0.1 | 15 | 100 | 0.22 | < 0.3 | 30 |  |  |  |  |  |  |  |
| Cc1cc2cc(S(=O)(=O)N(CC(C)C)CC(O)C(Cc3ccccc3)NC(=O)OC3COC4OCCC34)ccc2o1 (stereo not drawn) [Compound 102] |  |  | > 400 |  |  | 90 | < 0.1 |  |  | 0.96 | < 0.3 |  | 3.7 |
| Cc1nc(CNCc2noc3ccc(S(=O)(=O)N(CC(C)C)CC(O)C(Cc4ccccc4)NC(=O)OC4COC5OCCC45)cc23)cs1 (stereo not drawn) [Compound 242] | < 0.1 | 7 | 27 | 0.22 | < 0.3 | 15 |  |  |  |  |  |  |  |
| CCCCNc1n[nH]c2ccc(S(=O)(=O)N(CC(C)C)CC(O)C(Cc3ccccc3)NC(=O)OC3COC4OCCC34)cc12 (stereo not drawn) [Compound 308] |  |  | 310 |  |  | 30 | < 0.1 |  |  | 1.8 | < 0.3 |  | 8 |
